# In patent EP0108351A2, “Use of substituted malonic-acid derivatives as pesticides” (BAYER AG, priority 1982, dated 1984):
# Columns and labels:
# Format in all cases: in vivo
# Plutella maculipennis = experiment: Plutella test (cabbage leaves dipped, caterpillars placed on them); conditions: cabbage leaves (Brassica oleracea) dipped; concentration and time not stated; compared with prior art
# Excerpt: Lösungsmittel: 3 Gewichtsteile Dimethylformamid Emulgator : -1 Gewichtsteil Alkylarylpolyglykolether
# (§1) Zur Herstellung einer zweckmäßigen Wirkstoffzubereitung vermischt man 1 Gewichtsteil Wirkstoff mit der angegebenen Menge Lösungsmittel und der angegebenen Menge Emulgator und verdünnt das Konzentrat mit Wasser auf die gewünschte Konzentration.
# Kohlblätter (Brassica oleracea) werden durch Tauchen in die Wirkstoffzubereitung der gewünschten Konzentration behandelt und mit Raupen der Kohlschabe (Plutella maculipennis) besetzt, solange die Blätter noch feucht sind.
# Nach der gewünschten Zeit wird die Abtötung in % bestimmt. Dabei bedeutet 100 %, daß alle Raupen abgetötet wurden; 0 % bedeutet, daß keine Raupen abgetötet wurden.
# Tetranychus urticae = experiment: Tetranychus test (resistant), infested bean plants dipped; conditions: bean plants (Phaseolus vulgaris) dipped; all stages of mites; concentration and time not stated; compared with prior art
# Excerpt: Lösungsmittel: 3 Gewichtsteile Dimethylformamid Emulgator: . 1 Gewichtsteil Alkylarylpolyglykolether
# as §1
# Bohnenpflanzen (Phaseolus vulgaris), die stark von allen Entwicklungsstadien der gemeinen Spinnmilbe oder Bohnenspinnmilbe (Tetranychus urticae) befallen sind, werden durch Tauchen in die Wirkstoffzubereitung der gewünschten Konzentration behandelt.
# Nach der gewünschten Zeit wird die Abtötung in % bestimmt. Dabei bedeutet 100 %, daß alle Spinnmilben abgetötet wurden; 0 % bedeutet, daß keine Spinnmilben abgetötet wurden.
# [1] = tested on: Phorbia antiqua (im Boden); experiment: Limit concentration test / soil insects; conditions: compound mixed into soil; insects added after 24 hours, evaluated after 2 to 7 more days; concentration not given
# Excerpt: Testinsekt: Phorbia antiqua (im Boden) Lösungsmittel: 3 Gewichtsteile Aceton Emulgator: 1 Gewichtsteil Alkylarylpolyglykolether
# (§2) Zur Herstellung einer zweckmäßigen Wirkstoffzubereitung vermischt man 1 Gewichtsteil Wirkstoff mit der angegebenen Menge Lösungsmittel, gibt die angegebene Menge Emulgator zu und verdünnt das Konzentrat mit Wasser auf die gewünschte Konzentration.
# Die Wirkstoffzubereitung wird innig mit dem Boden vermischt. Dabei spielt die Konzentration des Wirkstoffs in der Zubereitung praktisch keine Rolle, entscheidend ist allein die Wirkstoffgewichtsmenge pro Volumeneinheit Boden, welche in ppm (= mg/1) angegeben wird. Man füllt den Boden in Töpfe und läßt diese bei Raumtemperatur stehen.
# Nach 24 Stunden werden die Testtiere in den behandelten Boden gegeben und nach weiteren 2 bis 7 Tagen wird der Wirkungsgrad des Wirkstoffs durch Auszählen der toten und lebenden Testinsekten in % bestimmt, Der Wirkungsgrad ist 100 %, wenn alle Testinsekten abgetötet worden sind, er ist O %, wenn noch genau so viele Testinsekten leben wie bei der unbehandelten Kontrolle.
# [2] = tested on: Lucilia cuprina res.-Larven; experiment: Test with Lucilia cuprina res. larvae; conditions: Wirkstoffkonzentration 1000 ppm, after 24 hours, read-out: Abtötung
# Protocol: Emulgator: 35 Gewichtsteile Ethylenglkolmonomethylether 35 Gewichtsteile Nonylphenolpolyglykolether
# Zur Herstellung einer zweckmäßigen Wirkstoffzubereitung vermischt man drei Gewichtsteile Wirkstott mit sieben Gewichtsteilen des oben angegebenen Lösungsmittel-Gemisches und verdünnt das so erhaltene Konzentrat mit Wasser auf die jeweils gewünschte Konzentration.
# Etwa 20 Lucilia cuprina res.-Larven werden in ein Teströhrchen gebracht, welches ca. 1 cm^2 Pferdefleisch und 0,5 ml der Wirkstoffzubereitung enthält. Nach 24 Stunden wird der Abtötungsgrad bestimmt.
# Myzus pesicae = experiment: Limit concentration test / root-systemic action (Myzus); conditions: compound mixed into soil, cabbage; leaves infested after 7 days, evaluated after 2 more days; concentration not given
# Excerpt: Testinsekt: Myzus pesicae Lösungsmittel: 3 Gewichtsteile Aceton Emulgator: 1 Gewichtsteil Alkylarylpolyglykolether
# as §2
# Die Wirkstoffzubereitung wird innig mit Boden vermischt. Dabei spielt die Konzentration des Wirkstoffs in der Zubereitung praktisch keine Rolle, entscheidend ist allein die Wirkstoffgewichtsmenge pro Volumeneinheit Boden, welche in ppm (= mg/1) angegeben wird. Man füllt den behandelten Boden in Töpfe und bepflanzt diese mit Kohl (Brassica oleracea). Der Wirkstoff kann so von den Pflanzenwurzeln aus dem Boden aufgenommen und in die Blätter transportiert werden.
# Für den Nachweis des wurzelsystemischen Effektes werden nach 7 Tagen ausschließlich die Blätter mit den obengenannten Testtieren besetzt. Nach weiteren 2 Tagen erfolgt die Auswertung durch Zählen oder Schätzen der toten Tiere. Aus den Abtötungszahlen wird die wurzelsystemische Wirkung des Wirkstoffs abgeleitet. Sie ist 100 %, wenn alle Testtiere abgetötet sind und 0 %, wenn noch genau so viele Testinsekten leben wie bei der unbehandelten Kontrolle.
SMILES,Wirksamkeit gegenüber dem Stand der Technik (Abtötung in %) (Plutella maculipennis),Wirksamkeit gegenüber dem Stand der Technik (Abtötung in %) (Tetranychus urticae),Wirkungsgrad gegenüber dem Stand der Technik [1],mortality at 1000 µg/mL [2] [%],wurzelsystemische Wirkung gegenüber dem Stand der Technik (Myzus pesicae)
"CNS(=O)(=O)OC(C(N)=O)(C(N)=O)c1ccc(Cl)c(Cl)c1 [Beispiel 5, 3,4-Dichlorphenylmethylsulfamoyloxymalonsäurediamid]",überlegene Wirksamkeit gegenüber dem Stand der Technik,überlegene Wirksamkeit gegenüber dem Stand der Technik,,,
"CC(=O)NC(=O)C(OC(C)=O)(C(=O)NC(C)=O)c1ccc(Cl)c(Cl)c1 [Beispiel 40, 3,4-Dichlorphenyl-acetoxy-malonsäurebisacetylamid]",überlegene Wirksamkeit gegenüber dem Stand der Technik,überlegene Wirksamkeit gegenüber dem Stand der Technik,überlegene Wirkung gegenüber dem Stand der Technik,,
"CC(=O)NC(=O)C(O)(C(N)=O)c1ccc(Cl)c(Cl)c1 (centres unmarked) [Beispiel 38a, 3,4-Dichlorphenylhydroxymalonsäureamidacetylamid]",überlegene Wirksamkeit gegenüber dem Stand der Technik,,überlegene Wirkung gegenüber dem Stand der Technik,,
"CC(=O)OC(C(N)=O)(C(N)=O)c1ccc(Cl)c(Cl)c1 [Beispiel 4, 3,4-Dichlorphenylacetoxymalonsäurediamid]",überlegene Wirksamkeit gegenüber dem Stand der Technik,,,,
"C[Si](C)(C)OC(C(N)=O)(C(N)=O)c1ccc(Cl)c(Cl)c1 [Beispiel 47, 2-(3,4-Dichlorphenyl)-2-trimethylsilyloxy-malonsäurediamid]",überlegene Wirksamkeit gegenüber dem Stand der Technik,überlegene Wirksamkeit gegenüber dem Stand der Technik,überlegene Wirkung gegenüber dem Stand der Technik,100,überlegene Wirkung gegenüber dem Stand der Technik
"CC(C)(C)NC(=O)C(O)(C(=O)NC(C)(C)C)c1ccccc1 [Beispiel 52, Phenylhydroxymalonsäure-bis-tert.-butylamid]",,,,,überlegene Wirkung gegenüber dem Stand der Technik
"CC(=O)NC(=O)C(OC(C)=O)(C(N)=O)c1ccc(Cl)c(Cl)c1 (centres unmarked) [Beispiel 39, 3,4-Dichlorphenylacetoxy-malonsäureamidacetylamid]",überlegene Wirksamkeit gegenüber dem Stand der Technik,überlegene Wirksamkeit gegenüber dem Stand der Technik,überlegene Wirkung gegenüber dem Stand der Technik,,
"COC(C(N)=O)(C(N)=O)c1ccc(Cl)c(Cl)c1 [Beispiel 1, 2-(3,4-Dichlorphenyl)-2-methoxy-malonsäurediamid]",überlegene Wirksamkeit gegenüber dem Stand der Technik,überlegene Wirksamkeit gegenüber dem Stand der Technik,überlegene Wirkung gegenüber dem Stand der Technik,,überlegene Wirkung gegenüber dem Stand der Technik
"NC(=O)C(O)(C(=O)NC=O)c1ccc(Cl)c(Cl)c1 (centres unmarked) [Beispiel 37, 3,4-Dichlorphenylhydroxymalonsäureamidformylamid]",überlegene Wirksamkeit gegenüber dem Stand der Technik,überlegene Wirksamkeit gegenüber dem Stand der Technik,,,
"CNC(=O)C(O)(C(N)=O)c1ccccc1 (centres unmarked) [Beispiel 27, Phenylhydroxymalonsäureamidmethylamid]",,,,,überlegene Wirkung gegenüber dem Stand der Technik
"NC(=O)C(O)(C(=O)[O-])c1ccccc1.[Na+] (centres unmarked) [Beispiel 33, Mononatriumsalzes des Phenylhydroxymalonsäuremonoamids]",,,,,überlegene Wirkung gegenüber dem Stand der Technik
C[Si](C)(C)NC(=O)C(O[Si](C)(C)C)(C(=O)N[Si](C)(C)C)c1ccc(Cl)c(Cl)c1 [Beispiel 48],überlegene Wirksamkeit gegenüber dem Stand der Technik,überlegene Wirksamkeit gegenüber dem Stand der Technik,überlegene Wirkung gegenüber dem Stand der Technik,,
"NC(=O)C(OC(=O)c1ccccc1Cl)C(=O)Nc1ccc(Cl)c(Cl)c1 (centres unmarked) [Beispiel 2, 3,4-Dichlorphenyl-(2-chlorbenzoyloxy)-malonsäurediamid]",überlegene Wirksamkeit gegenüber dem Stand der Technik,,,,
"CC(=O)NC(=O)C(O)(C(N)=O)c1ccccc1 (centres unmarked) [Beispiel 38, Phenylhydroxymalonsäureamidacetylamid]",überlegene Wirksamkeit gegenüber dem Stand der Technik,,,,
"NC(=O)C(OC(=O)c1ccccc1)(C(N)=O)c1ccc(Cl)c(Cl)c1 [Beispiel 3, 3,4-Dichlorphenylbenzoyloxymalonsäurediamid]",überlegene Wirksamkeit gegenüber dem Stand der Technik,,,,
"NC(=O)C(OSC(F)(Cl)Cl)(C(N)=O)c1ccc(Cl)c(Cl)c1 [Beispiel 36, 3,4-Dichlorphenyl-dichlorfluormethylsulfenyloxy-malonsäurediamid]",überlegene Wirksamkeit gegenüber dem Stand der Technik,überlegene Wirksamkeit gegenüber dem Stand der Technik,,,
"CC(=O)NC(=O)C(OC(=O)c1ccccc1)(C(=O)NC(C)=O)c1ccc(Cl)c(Cl)c1 [Beispiel 41, 3,4-Dichlorphenylbenzoyloxymalonsäurebisacetylamid]",überlegene Wirksamkeit gegenüber dem Stand der Technik,überlegene Wirksamkeit gegenüber dem Stand der Technik,,,
